Assay results taken from ChEMBL document CHEMBL4411335, “Identification and Optimization of Novel Small c-Abl Kinase Activators Using Fragment and HTS Methodologies” (J Med Chem, 2019).
Values after ≈ are worked out from the molar mass of the structure shown.

Key:
[1] = target: T1, Tyrosine-protein kinase ABL1 (Homo sapiens, UniProt P00519); assay: Activation of full length human 6His-tagged c-Abl expressed in baculovirus expression system using abltide as substrate after 2 hrs by IMAP assay; settings: read-out: pIC50 (converted)
T1 sequence (P00519 whole entry, the tested form may be a part): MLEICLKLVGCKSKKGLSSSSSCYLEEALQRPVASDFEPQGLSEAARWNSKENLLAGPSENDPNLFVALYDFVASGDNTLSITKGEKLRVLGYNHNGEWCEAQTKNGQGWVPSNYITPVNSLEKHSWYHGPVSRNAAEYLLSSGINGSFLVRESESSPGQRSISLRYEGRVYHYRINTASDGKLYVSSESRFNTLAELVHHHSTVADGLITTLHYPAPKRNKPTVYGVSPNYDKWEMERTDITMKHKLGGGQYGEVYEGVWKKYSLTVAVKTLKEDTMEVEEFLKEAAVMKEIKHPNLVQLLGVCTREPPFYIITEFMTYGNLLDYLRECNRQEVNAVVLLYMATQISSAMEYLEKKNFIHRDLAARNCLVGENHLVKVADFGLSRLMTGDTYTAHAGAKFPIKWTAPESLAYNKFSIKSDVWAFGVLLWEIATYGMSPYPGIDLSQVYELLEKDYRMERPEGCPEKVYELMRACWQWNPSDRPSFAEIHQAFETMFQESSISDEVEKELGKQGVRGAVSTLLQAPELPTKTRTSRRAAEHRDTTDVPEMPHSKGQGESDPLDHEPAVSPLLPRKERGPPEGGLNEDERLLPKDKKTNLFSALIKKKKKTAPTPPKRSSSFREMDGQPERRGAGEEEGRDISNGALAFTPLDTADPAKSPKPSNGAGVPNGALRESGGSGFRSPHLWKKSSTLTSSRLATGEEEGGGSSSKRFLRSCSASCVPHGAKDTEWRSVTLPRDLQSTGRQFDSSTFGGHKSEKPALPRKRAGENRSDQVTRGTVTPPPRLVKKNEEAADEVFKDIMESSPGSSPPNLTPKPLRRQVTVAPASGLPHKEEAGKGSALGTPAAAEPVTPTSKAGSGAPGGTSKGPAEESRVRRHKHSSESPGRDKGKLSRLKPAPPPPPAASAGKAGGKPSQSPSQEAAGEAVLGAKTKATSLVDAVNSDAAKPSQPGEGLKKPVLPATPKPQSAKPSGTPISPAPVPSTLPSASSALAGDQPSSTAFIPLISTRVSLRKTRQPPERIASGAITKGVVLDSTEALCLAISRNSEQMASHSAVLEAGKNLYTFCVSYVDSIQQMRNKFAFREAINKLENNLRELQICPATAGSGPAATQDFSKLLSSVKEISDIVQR

[2] = target: Tyrosine-protein kinase ABL1 (Homo sapiens, UniProt P00519, D382N); assay: Displacement of Myr-GQQPGKVLGDQRRPSL(K-TAMRA)G-amide from N-terminal-truncated human c-ABL D382N mutant (46 to 534 residues) after 30 mins by fluorescence polarization binding assay
Sequence of Tyrosine-protein kinase ABL1 (Homo sapiens, UniProt P00519, D382N) (P00519 as listed by the source D382N): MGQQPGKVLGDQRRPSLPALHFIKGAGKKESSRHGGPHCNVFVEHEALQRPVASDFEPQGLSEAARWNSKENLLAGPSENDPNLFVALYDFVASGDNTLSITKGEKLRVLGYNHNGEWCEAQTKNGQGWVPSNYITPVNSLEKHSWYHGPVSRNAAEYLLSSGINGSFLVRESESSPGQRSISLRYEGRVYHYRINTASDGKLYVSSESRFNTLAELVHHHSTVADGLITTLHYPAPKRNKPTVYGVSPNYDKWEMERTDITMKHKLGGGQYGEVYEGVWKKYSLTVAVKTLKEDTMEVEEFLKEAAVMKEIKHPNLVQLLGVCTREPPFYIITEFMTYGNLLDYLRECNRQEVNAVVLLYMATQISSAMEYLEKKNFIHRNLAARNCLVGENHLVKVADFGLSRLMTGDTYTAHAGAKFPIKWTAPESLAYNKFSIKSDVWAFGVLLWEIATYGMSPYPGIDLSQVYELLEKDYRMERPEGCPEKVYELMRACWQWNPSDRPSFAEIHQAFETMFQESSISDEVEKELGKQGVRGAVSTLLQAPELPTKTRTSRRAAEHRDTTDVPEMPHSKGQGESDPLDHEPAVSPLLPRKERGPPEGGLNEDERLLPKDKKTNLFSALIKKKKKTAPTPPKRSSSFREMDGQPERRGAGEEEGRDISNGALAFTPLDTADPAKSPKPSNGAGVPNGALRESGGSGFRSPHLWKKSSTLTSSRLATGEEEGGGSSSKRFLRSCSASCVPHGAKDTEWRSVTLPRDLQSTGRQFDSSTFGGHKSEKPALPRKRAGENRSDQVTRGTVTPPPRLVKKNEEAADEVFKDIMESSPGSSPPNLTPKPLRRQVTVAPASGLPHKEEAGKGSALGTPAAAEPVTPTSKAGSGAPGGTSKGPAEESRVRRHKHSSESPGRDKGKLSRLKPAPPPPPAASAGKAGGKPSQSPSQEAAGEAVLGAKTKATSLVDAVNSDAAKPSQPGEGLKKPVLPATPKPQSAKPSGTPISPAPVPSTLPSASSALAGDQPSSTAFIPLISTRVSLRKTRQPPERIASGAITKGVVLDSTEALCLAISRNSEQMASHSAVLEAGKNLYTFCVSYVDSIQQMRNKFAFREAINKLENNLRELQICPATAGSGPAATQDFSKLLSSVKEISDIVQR

[3] = target: T1, Tyrosine-protein kinase ABL1; assay: Induction of human c-ABL phosphorylation at Y245/Y412 residues in bacmam-induced HEK-MSR2 cell lysates by in-cell Western blot analysis; type: subcellular, Lysate
[4] = Kinetic solubility of the compound at pH 7.4 after 1 hr by CLND-based assay; type: physicochemical; settings: buffer, read-out: Kinetic_solubility
[5] = Permeability of the compound at […] after 3 hrs by artificial membrane permeability assay; type: ADME; settings: PAMPA; read-out: permeability
[6] = Intrinsic clearance in CD1 mouse liver microsomes at 0.5 uM measured up 60 mins in presence of NADPH by LC-MS/MS analysis; type: ADME, Microsome; settings: 1 h
[7] = Terminal plasma concentration in CD1 mouse at 100 mg/kg, ip after 40 mins; type: ADME, organism-based; settings: read-out: Cp(T)
[8] = Terminal plasma concentration in CD1 mouse at 100 mg/kg, ip after 180 mins; type: ADME, organism-based; settings: read-out: Cp(T)
Mus musculus [9] = assay: In vivo activation of c-ABL in CD1 mouse assessed as fold increase in phosphorylated CRKL level at 100 mg/kg, ip after 40 mins relative to total CRK-L protein level; type: functional
Mus musculus [10] = assay: In vivo activation of c-ABL in CD1 mouse assessed as fold increase in phosphorylated CRKL level at 100 mg/kg, ip after 180 mins relative to total CRK-L protein level; type: functional
[11] = Toxicity in CD1 mouse assessed as induction of hemolysis at 100 mg/kg, BID for 10 days; type: organism-based; settings: in vivo, 240 h

Compound | EC50 for c-Abl activation [1] [nM] | IC50 [2] [nM] | EC50 [3] [nM] | solubility kinetic at 1 h [4] [µM] | Papp at 3 h [5] [×10⁻⁶ cm/s] | CLint [6] [µL/min/mg] | concentration at 40 min [7] [ng/mL] | concentration at 3 h [8] [ng/mL] | fold change (FC) (Mus musculus [9]) | fold change (FC) (Mus musculus [10]) | Activity [11]
CC(=O)Nc1nc(-c2ccc(Br)s2)cs1 | 12600 | 5010 | > 50100 | 16 (≈ 4.85 µg/mL) | 21 |  |  |  |  |  | 
N#CCCC(=O)NC1=NN(c2ccc(Cl)c(Cl)c2)CC1 | 251 | 316 | 794 | 39 (≈ 12.1 µg/mL) | 35.5 | < 10 | 15600 | 17600 | 19 | 35 | Toxic
O=C(NC1=NN(c2ccc(Cl)c(Cl)c2)CC1)c1ccccn1 | 2000 | 2000 | > 50100 | 11 (≈ 3.69 µg/mL) | 35 |  |  |  |  |  | 
N#CCC(=O)NC1=NN(c2ccc(Cl)c(Cl)c2)CC1 | 251 | 398 | 1000 | 202 (≈ 60 µg/mL) | 32 |  |  |  |  |  | 
Cc1ncncc1C(=O)NC1=NN(c2ccc(Cl)c(Cl)c2)CC1 | 39.8 | 158 | 316 | 12 (≈ 4.2 µg/mL) | 34 |  |  |  |  |  | 
C[C@H]1CN(c2ccc(Cl)c(Cl)c2)N=C1NC(=O)c1cncnc1 | 20 | 316 | 100 | 9 (≈ 3.15 µg/mL) | 42 |  |  |  |  |  | 
CC(=O)N[C@@H](C)C(=O)NC1=NN(c2ccc(Cl)c(Cl)c2)CC1 | 1580 | 1260 | 7940 | 58 (≈ 19.9 µg/mL) | 34 |  |  |  |  |  | 
O=C(NC1=NN(c2ccc(Cl)c(Cl)c2)CC1)c1ccncc1F | 126 | 200 | 1580 | 36 (≈ 12.7 µg/mL) | 28 |  |  |  |  |  | 
NC1=NN(c2ccc(Cl)c(Cl)c2)CC1 | 6310 | 2000 | 12600 | 69 (≈ 15.9 µg/mL) | 32 |  |  |  |  |  | 
O=C1CCCC(C(=O)NC2=NN(c3ccc(Cl)c(Cl)c3)CC2)N1 (stereo unspecified) | 398 | 501 | 2510 | 416 (≈ 148 µg/mL) | 25 |  |  |  |  |  | 
N#CCC(=O)Nc1cc(-c2ccc(Cl)c(Cl)c2)cs1 | 3160 | 3980 | 20000 | 12 (≈ 3.73 µg/mL) | 19 |  |  |  |  |  | 
N#CCC(=O)Nc1csc(-c2ccc(Cl)c(Cl)c2)c1 | 15800 | 3980 | > 50100 | 10 (≈ 3.11 µg/mL) | 12 |  |  |  |  |  | 
CC(=O)NC1=NN(c2ccc(Cl)c(Cl)c2)[C@@H](C)C1 | 501 | 398 | 10000 | 125 (≈ 35.8 µg/mL) | 42 |  |  |  |  |  | 
CC(=O)Nc1nc(-c2cc(Cl)c(Cl)s2)cs1 | > 100000 | 6310 | > 50100 | 1 (≈ 0.293 µg/mL) | 28 |  |  |  |  |  | 
CC(=O)NC1=NN(c2ccc(Cl)c(Cl)c2)CC1 | 316 | 398 | 794 | 31 (≈ 8.44 µg/mL) | 36 |  |  |  |  |  | 
O=C(NC1=NN(c2ccc(Cl)c(Cl)c2)CC1)c1ccncc1 | 200 | 316 | 1580 | 9 (≈ 3.02 µg/mL) | 30.3 |  |  |  |  |  | 
N#CCC(=O)Nc1nsc(-c2ccc(Cl)c(Cl)c2)n1 | 2000 | 2510 | 15800 | 69 (≈ 21.6 µg/mL) | 28 |  |  |  |  |  | 
CC(=O)NC1=NN(c2ccc(Cl)c(Cl)c2)[C@H](C)C1 | 2000 | 1580 | 10000 | 173 (≈ 49.5 µg/mL) | 41 |  |  |  |  |  | 
O=C(NC1=NN(c2ccc(Cl)c(Cl)c2)CC1)c1cccnc1F | 126 | 398 | 1260 | 13 (≈ 4.59 µg/mL) | 57 |  |  |  |  |  | 
N#CCC(=O)Nc1nc(-c2ccc(Cl)c(Cl)c2)c[nH]1 | 1580 | 631 | 3160 | 14 (≈ 4.13 µg/mL) | 31 |  |  |  |  |  | 
O=C(NC1=NN(c2ccc(Cl)c(Cl)c2)CC1)c1cccnc1 | 158 | 251 | 631 | 4 (≈ 1.34 µg/mL) | 30.5 |  |  |  |  |  | 
N#CCC(=O)Nc1cccc(-c2ccc(Cl)c(Cl)c2)n1 | 12600 | 1580 | > 50100 | 1 (≈ 0.306 µg/mL) | 21.5 |  |  |  |  |  | 
N#CCC(=O)Nc1csc(-c2ccc(Cl)c(Cl)c2)n1 | 1580 | 126 | 15800 | 2 (≈ 0.624 µg/mL) | 35 |  |  |  |  |  | 
O=C(NC1=NN(c2ccc(Cl)c(Cl)c2)CC1)c1cncnc1 | 251 | 501 | 631 | 8 (≈ 2.69 µg/mL) | 35 |  |  |  |  |  | 
N#CCC(=O)Nc1nc(-c2ccc(Cl)c(Cl)c2)ns1 | 3160 | 1000 | 10000 | 370 (≈ 116 µg/mL) | 23 |  |  |  |  |  | 
O=C(NC1=NN(c2ccc(Cl)c(Cl)c2)CC1)c1ccncn1 | 15800 | 1000 | 39800 | 13 (≈ 4.37 µg/mL) | 32 |  |  |  |  |  | 
O=C(NC1=NN(c2ccc(Cl)c(Cl)c2)CC1)c1ccnnc1 | 251 | 501 | 501 | 23 (≈ 7.73 µg/mL) | 36 |  |  |  |  |  | 
N#CCC(=O)Nc1ccn(-c2ccc(Cl)c(Cl)c2)n1 | 2510 | 1580 | 7940 | 34 (≈ 10 µg/mL) | 31 |  |  |  |  |  | 
O=C(NC1=NN(c2ccc(Cl)c(Cl)c2)CC1CCO)c1cccnc1 (racemic) | 126 | 251 | 7940 | 192 (≈ 72.8 µg/mL) | 19 |  |  |  |  |  | 
O=C(NC1=NN(c2ccc(Cl)c(Cl)c2)CC1CCO)c1ccncc1 (racemic) | 100 | 158 | 3160 | 167 (≈ 63.3 µg/mL) | 33.5 |  |  |  |  |  | 
